From BigSolDB 2.1

Cc1cnc(N)s1
Conditions	solubility (mole fraction)
in 1,4-dioxane, 278.15 K	0.0399
in 1,4-dioxane, 280.65 K	0.0431
in 1,4-dioxane, 283.15 K	0.0474
in 1,4-dioxane, 285.65 K	0.0517
in 1,4-dioxane, 288.15 K	0.0563
in 1,4-dioxane, 290.65 K	0.0618
in 1,4-dioxane, 293.15 K	0.0673
in 1,4-dioxane, 295.65 K	0.0737
in 1,4-dioxane, 298.15 K	0.0806
in 1,4-dioxane, 300.65 K	0.0881
in 1,4-dioxane, 303.15 K	0.0961
in 1,4-dioxane, 305.65 K	0.105
in 1,4-dioxane, 308.15 K	0.115
in 1,4-dioxane, 310.65 K	0.126
in 1,4-dioxane, 313.15 K	0.138
in 2-butanone, 278.15 K	0.0365
in 2-butanone, 280.65 K	0.0405
in 2-butanone, 283.15 K	0.0448
in 2-butanone, 285.65 K	0.049
in 2-butanone, 288.15 K	0.0535
in 2-butanone, 290.65 K	0.0585
in 2-butanone, 293.15 K	0.064
in 2-butanone, 295.65 K	0.0705
in 2-butanone, 298.15 K	0.0776
in 2-butanone, 300.65 K	0.0849
in 2-butanone, 303.15 K	0.093
in 2-butanone, 305.65 K	0.101
in 2-butanone, 308.15 K	0.111
in 2-butanone, 310.65 K	0.121
in 2-butanone, 313.15 K	0.133
in acetone, 278.15 K	0.0493
in acetone, 280.65 K	0.0535
in acetone, 283.15 K	0.0587
in acetone, 285.65 K	0.0637
in acetone, 288.15 K	0.0692
in acetone, 290.65 K	0.0756
in acetone, 293.15 K	0.0825
in acetone, 295.65 K	0.09
in acetone, 298.15 K	0.0979
in acetone, 300.65 K	0.107
in acetone, 303.15 K	0.116
in acetone, 305.65 K	0.126
in acetone, 308.15 K	0.137
in acetone, 310.65 K	0.15
in acetone, 313.15 K	0.163
in acetonitrile, 278.15 K	0.0284
in acetonitrile, 280.65 K	0.031
in acetonitrile, 283.15 K	0.0341
in acetonitrile, 285.65 K	0.0372
in acetonitrile, 288.15 K	0.0406
in acetonitrile, 290.65 K	0.0446
in acetonitrile, 293.15 K	0.0489
in acetonitrile, 295.65 K	0.0536
in acetonitrile, 298.15 K	0.0586
in acetonitrile, 300.65 K	0.0638
in acetonitrile, 303.15 K	0.0699
in acetonitrile, 305.65 K	0.0763
in acetonitrile, 308.15 K	0.0838
in acetonitrile, 310.65 K	0.0921
in acetonitrile, 313.15 K	0.1
in cyclohexane, 283.15 K	0.000429
in cyclohexane, 285.65 K	0.000491
in cyclohexane, 288.15 K	0.000566
in cyclohexane, 290.65 K	0.000645
in cyclohexane, 293.15 K	0.000736
in cyclohexane, 295.65 K	0.000839
in cyclohexane, 298.15 K	0.000953
in cyclohexane, 300.65 K	0.00108
in cyclohexane, 303.15 K	0.00123
in cyclohexane, 305.65 K	0.00138
in cyclohexane, 308.15 K	0.00156
in cyclohexane, 310.65 K	0.00173
in cyclohexane, 313.15 K	0.00194
in ethanol, 278.15 K	0.0486
in ethanol, 280.65 K	0.0529
in ethanol, 283.15 K	0.0574
in ethanol, 285.65 K	0.0629
in ethanol, 288.15 K	0.0677
in ethanol, 290.65 K	0.0736
in ethanol, 293.15 K	0.0799
in ethanol, 295.65 K	0.0869
in ethanol, 298.15 K	0.095
in ethanol, 300.65 K	0.103
in ethanol, 303.15 K	0.112
in ethanol, 305.65 K	0.122
in ethanol, 308.15 K	0.133
in ethanol, 310.65 K	0.144
in ethanol, 313.15 K	0.157
in ethyl acetate, 278.15 K	0.0523
in ethyl acetate, 280.65 K	0.0567
in ethyl acetate, 283.15 K	0.0614
in ethyl acetate, 285.65 K	0.067
in ethyl acetate, 288.15 K	0.0726
in ethyl acetate, 290.65 K	0.0791
in ethyl acetate, 293.15 K	0.086
in ethyl acetate, 295.65 K	0.0934
in ethyl acetate, 298.15 K	0.101
in ethyl acetate, 300.65 K	0.109
in ethyl acetate, 303.15 K	0.118
in ethyl acetate, 305.65 K	0.129
in ethyl acetate, 308.15 K	0.14
in ethyl acetate, 310.65 K	0.152
in ethyl acetate, 313.15 K	0.164
in isopropanol, 278.15 K	0.0345
in isopropanol, 280.65 K	0.0381
in isopropanol, 283.15 K	0.0415
in isopropanol, 285.65 K	0.0452
in isopropanol, 288.15 K	0.0497
in isopropanol, 290.65 K	0.0546
in isopropanol, 293.15 K	0.0594
in isopropanol, 295.65 K	0.0647
in isopropanol, 298.15 K	0.0709
in isopropanol, 300.65 K	0.0775
in isopropanol, 303.15 K	0.085
in isopropanol, 305.65 K	0.0927
in isopropanol, 308.15 K	0.102
in isopropanol, 310.65 K	0.112
in isopropanol, 313.15 K	0.121
in methanol, 278.15 K	0.0594
in methanol, 280.65 K	0.0639
in methanol, 283.15 K	0.0686
in methanol, 285.65 K	0.0742
in methanol, 288.15 K	0.0796
in methanol, 290.65 K	0.086
in methanol, 293.15 K	0.0927
in methanol, 295.65 K	0.0999
in methanol, 298.15 K	0.107
in methanol, 300.65 K	0.116
in methanol, 303.15 K	0.125
in methanol, 305.65 K	0.135
in methanol, 308.15 K	0.146
in methanol, 310.65 K	0.157
in methanol, 313.15 K	0.169
in n-propanol, 278.15 K	0.037
in n-propanol, 280.65 K	0.0404
in n-propanol, 283.15 K	0.0441
in n-propanol, 285.65 K	0.0482
in n-propanol, 288.15 K	0.0526
in n-propanol, 290.65 K	0.0575
in n-propanol, 293.15 K	0.0628
in n-propanol, 295.65 K	0.0686
in n-propanol, 298.15 K	0.075
in n-propanol, 300.65 K	0.082
in n-propanol, 303.15 K	0.0898
in n-propanol, 305.65 K	0.098
in n-propanol, 308.15 K	0.107
in n-propanol, 310.65 K	0.117
in n-propanol, 313.15 K	0.128
in toluene, 278.15 K	0.0109
in toluene, 280.65 K	0.0121
in toluene, 283.15 K	0.0136
in toluene, 285.65 K	0.0149
in toluene, 288.15 K	0.0167
in toluene, 290.65 K	0.0185
in toluene, 293.15 K	0.0205
in toluene, 295.65 K	0.0225
in toluene, 298.15 K	0.0251
in toluene, 300.65 K	0.028
in toluene, 303.15 K	0.0312
in toluene, 305.65 K	0.0348
in toluene, 308.15 K	0.039
in toluene, 310.65 K	0.0438
in toluene, 313.15 K	0.0493
